The data set is described as follows: water solubility (comparative statement). Particulars: compared to PC-JF549-NHS. The class given is physicochemical.

As for `COCCOCCOCCOCCNC(=O)c1cc2ccc(N3C(=O)c4ccc(C(=O)ON5C(=O)CCC5=O)cc4C34c3ccc(N5CCC5)cc3[Si](C)(C)c3cc(N5CCC5)ccc34)cc2oc1=O` [PC-JF646-PEG-NHS, 2,5-dioxopyrrolidin-1-yl 2′-(3-((2,5,8,11-tetraoxatridecan-13-yl)carbamoyl)-2-oxo-2H-chromen-7-yl)-3,7-di(azetidin-1-yl)-5,5-dimethyl-3′-oxo-5H-spiro[dibenzo[b,e]siline-10,1′-isoindoline]-6′-carboxylate], the water solubility result is “better water solubility”.

The values are drawn from patent publication US12360106B2, “Photochromic xanthene fluorophores and their utility in live-cell imaging beyond the diffraction limit” (HOWARD HUGHES MEDICAL INSTITUTE, priority 2017, dated 2025).
